Experimental data taken from ChEMBL document CHEMBL1649513, “Population pharmacokinetics of acyclovir in children and young people with malignancy after administration of intravenous acyclovir or oral valacyclovir” (Antimicrob Agents Chemother, 2009).

Tests used:
[1] = Bioavailability in children and young patient with malignancy; assay type: ADME, organism-based; details: human, in vivo
[2] = Bioavailability in immunocompromized children at […], po administered every 12 hrs; assay type: ADME, organism-based; details: human, in vivo

bioavailability [1]: 60% | bioavailability [2]: 48%
SMILES: Nc1nc2c(ncn2COCCO)c(=O)[nH]1 [ACYCLOVIR]
